Two molecules from patent publication US20230390296A1, “NOVEL TREATMENT AND PREVENTION OF SARCOPENIA-RELATED DISEASES” (KEIO UNIVERSITY, priority 2020, published 2023) can be followed below.

Each structure is given as a SMILES string. “And” between values parts separate entries of the source, which are not always exact repeats. Equal entries are not always repeated.

In assay [1] the test system is muscle of mice without exercise. Description: Gene analysis (RNA-seq, GO, upstream transcription factor, GSEA) of muscle of administered mice without exercise. In kind it is in vivo, mouse. On the procedure: Gene analysis (RNA-seq) was performed in old mice administered with OK-1 with improved muscle strength and muscle mass. The method and reagent used were the following.
The quality of all reads was checked by using FastQC v0.11.8, and low quality reads were removed using Trimomatic (ver 0.38).
LEADING: 20 (remove bases with a quality score of less than 20 from the leading reads), TRAILING: 20, SLIDINGWINDOW: 4:15 (window size 4, average quality 15), MINLEN: 36 (remove reads that are less than […])
Each read obtained after filtering was mapped to reference genome GRCm38 by using STAR (ver 2.7.0.f). Mapping was performed using the default values of STAR.
1) Index preparation • Run Mode; genomeGenerate • Reference; GRCm38 • Annotation file; genecode version M24 • sjdbOverhang; 150 alignment was performed using the index prepared above. In addition, this was performed with default values without options.
To count the number of genes, featuecount (ver 1.6.4) was used to count the number for each gene name defined by a symbol name, where the number was counted in gene symbol units defined in genecode version M24.
The counted numbers were filtered for genes with a count data of 0 in all samples, subjected to TMM normalization using edgeR (ver 3.22.3), and corrected among samples. Initially, for understanding of the overall picture of the data, primary component analysis and clustering analysis were performed using count data after removal of low expression genes.
Differential expression of a pattern designated based on the obtained expression values was compared.
Differentially expressed genes were tested using edgeR. As the definition of differentially expressed gene, uncorrected p. value<0.05 was used as a cut-off value, and Fold Change of “pattern not used” and “2 or more or 0.5 or less” were used as the cut-off for calculation.
Gene enrichment analysis was performed on the resulting differentially expressed gene using gprofiler2 (version 0.1.6).
Expression values after normalization of resulting differentially expressed genes were extracted. Visual heatmap was drawn to study the change. […] This analysis was performed using RcisTarget (ver 1.8.0). RcisTarget performed analysis using a mouse database for 10 kbp upstream of TSS stored in RcisTarget. Details of analysis are the following (cited from https://scenic.aertslab.org/tutorials/RcisTarget.html).
The first step to estimate the over-representation of each motif on the gene-set is to calculate the Area Under the Curve (AUC) for each pair of motif-geneSet. This is calculated based on the recovery curve of the gene-set on the motif ranking (genes ranked decreasingly by the score of motif in its proximity, as provided in the motifRanking database).
The selection of significant motifs is done based on the Normalized Enrichment Score (NES). The NES is calculated—for each motif—based on the AUC distribution of all the motifs for the gene-set [(x-mean)/sd]. Those motifs that pass the given threshold (3.0 by default) are considered significant. […] In this way, the third step of the workflow is to identify which genes (of the gene-set) are highly ranked for each of the significant motifs. These genes were identified by a faster implementation based on an approximate distribution using the average at each rank.
The category of genes with a change in expression identified in Example 2 was analyzed with a software (GSEA), which is different from that in Example 2 (GO) (FIG. 3). Analysis with GSEA was performed as follows. GSEA performed categorization by the regulating gene. This is different from GO, which performs categorization by function.
Data was created on the relationship of activattion+unknown and repression+unknown for regulatory genes and transcription factors installed in TRRUST ver2. Gene enrichment analysis was performed using GSEA (https://www.gsea-msigdb.org/gsea/index.jsp) based on respective gene sets. local gsea-3.0 that starts up within java was used for GSEA.

For assay [2], the system named is mouse bones. Description: Bone density (DEXA or ultrasound). In kind it is in vivo. Particulars: administered versus non-administered mice. The method, then: This Example tested bone density for mice administered with OK-1 and mice without administration of OK-1 in order to investigate the effect of OK-1 on mouse bones. Bone density was measured using DEXA or ultrasound.
This Example tested bone density for mice administered with C-82 and mice without administration of C-82 in order to investigate the effect of C-82 on mouse bones. Bone density was measured using DEXA or ultrasound.

In assay [3] the test system is sarcopenia mouse models. Nature of the assay: NTX (cross linked N-telopeptide of type I collagen) concentration. Format: in vivo. Particulars: administered versus non-administered sarcopenia mouse models. On the procedure: Mouse models were divided into two groups. The NTX (cross linked N-telopeptide of type I collagen) concentration was measured for sarcopenia mouse models administered with OK-1 and sarcopenia mouse models without administration of OK-1.
Mouse models were divided into two groups. The NTX (cross linked N-telopeptide of type I collagen) concentration was measured for sarcopenia mouse models administered with C-82 and sarcopenia mouse models without administration of C-82.

The test system of assay [4] is sarcopenia mouse models. Description: Metabolic disease markers (LDH, ALT, TG, HDL-C, insulin, glucose, amylase, AST concentrations). Format: in vivo. Particulars: administered versus non-administered sarcopenia mouse models. The method, then: Mouse models were divided into two groups. LDH concentration, ALT concentration, TG concentration, HDL-C concentration, insulin concentration, glucose concentration, amylase concentration, AST concentration, and ALT concentration were measured for sarcopenia mouse models administered with OK-1 and sarcopenia mouse models without administration of OK-1.
Mouse models were divided into two groups. LDH concentration, ALT concentration, TG concentration, HDL-C concentration, insulin concentration, glucose concentration, amylase concentration, AST concentration, and ALT concentration were measured for sarcopenia mouse models administered with C-82 and sarcopenia mouse models without administration of C-82.

Assay [5] relates to sarcopenia mouse models. Description: Brain function behavioral tests (Barnes maze, fear conditioning, object recognition, open field, social behavior). Format: in vivo. Particulars: administered versus non-administered sarcopenia mouse models. On the procedure:
Mouse models were divided into two groups. Short term memory, long term memory, depression, activity level, social interaction, cognitive ability, etc., were tested using a Barnes maze, fear conditioning test, object recognition test, open field test, social behavior test (Crawley version), etc. on sarcopenia mouse models administered with OK-1 and sarcopenia mouse models without administration of OK-1.
These tests are described in http://www.fujita-hu.ac.jp/ to smedsci/behaviorcore/equipment/index.html, Barnes maze, a useful task to assess spatial reference memory in the mice (doi: 10.1038/nprot.2007.390), etc., which can be suitably referenced and practiced.
Mouse models were divided into two groups. Short term memory, long term memory, depression, activity level, social interaction, cognitive ability, etc., were tested using a Barnes maze, fear conditioning test, object recognition test, open field test, social behavior test (Crawley version), etc. on sarcopenia mouse models administered with C-82 and sarcopenia mouse models without administration of C-82.
These tests are described in http://www.fujita-hu.ac.jp/to smedsci/behaviorcore/equipment/index.html, Barnes maze, a useful task to assess spatial reference memory in the mice (doi: 10.1038/nprot.2007.390), etc., which can be suitably referenced and practiced.

The subject of assay [6] is P301S mouse models. Nature of the assay: Tau phosphorylation, memory and brain atrophy in tauopathy model. Format: in vivo. Particulars: P301S (FTDP-17) mouse model.
In assay [7] the test system is C2C12 cells. Description: Gene expression levels in treated cultured cells. Format: cell-based, mouse. On the procedure: Mouse striated muscle derived cells, i.e., C2C12 cells, were cultured and treated with OK-1, ICG-001, or C-82. Gene expression levels of cells treated with OK-1, ICG-001, or C-82, and untreated cells are compared.

Take `C[C@H]1[C@H]2N(C(=O)CN(C)N2C(=O)NCc2ccccc2)[C@@H](Cc2ccc(O)cc2)C(=O)N1Cc1cccc2cccnc12` [C-82, (6S,9S)—N-benzyl-6-(4-hydroxybenzyl)-2,9-dimethyl-4,7-dioxo-8-(quinolin-8-ylmethyl)hexahydro-2H-pyrazino[2,1-c][1,2,4]triazine-1(6H)-carboxamide]: the “change in gene expression in muscles” value in assay [1] (C-82 administration, same method as Example 2) is on record as “achieves the same result as OK-1”. Besides, the bone density entry in assay [2] is listed as “bone density is improved”. The “osteoporosis (from NTX concentration)” value in assay [3] was “osteoporosis is improved”. Also, in assay [4], the “pancreatic function, liver function and salivary gland function” value is “pancreatic function, liver function, and salivary gland function are improved”. Besides, the “short term memory, long term memory, depression, activity level, social interaction, cognitive ability” value in assay [5] was “short term memory, long term memory, depression, activity level, social interaction, and cognitive ability are improved”. Moreover, the “phosphorylation of Tau, memory or brain atrophy” value in assay [6] is “suppression in phosphorylation of Tau and improvement in memory or brain atrophy are observed”. In assay [7], the “gene expression levels versus untreated cells” value is reported as “change in gene expression similar to Example 2”.
As to `C[C@H]1[C@H]2N(C(=O)CN(C)N2C(=O)NCc2ccccc2)[C@@H](Cc2ccc(OP(=O)(O)O)cc2)C(=O)N1Cc1cccc2cccnc12` [OK-1], in assay [1], the “gene group associated with OK-1: genes associated with regulation of muscle without exercise” value was “Ppara, Pou2f2, Foxo1, Pparg, Pou2f1, Trp63, Sp1, Tcf3, Zeb1, Srebf1, Sp3, Ebf1, Mycn, and Pbx1”; the “upstream factors from upstream transcription factor analysis” value was “Hnf4a and Gata4, Nrf1, and Hnf1a”. In assay [1] (GSEA, TRRUST ver2), the “gene group associated with OK-1 by GSEA: involved in increase in muscle” value was “IRF1, NFE2L2, PPARG, FOXO1, CEBPB, PPARA, CEBPA, STAT1, STAT5A, MYOD1, REL, NFKB1, SPI1, IRF8, SP1, and FOXM1”. In assay [1] (OK-1 administration, p<0.05), the “genes decreased (downregulated expression) significantly in muscle” value was 445 genes and 595 genes; the “genes increased (upregulated expression) significantly in muscle” value was 206 genes and 181 genes. Moreover, the bone density result in assay [2] is on record as “bone density is improved”. In addition, the “osteoporosis (from NTX concentration)” value in assay [3] was “osteoporosis is improved”. Moreover, the “pancreatic function, liver function and salivary gland function” value in assay [4] is “pancreatic function, liver function, and salivary gland function are improved”. For the same molecule, the “short term memory, long term memory, depression, activity level, social interaction, cognitive ability” value in assay [5] was “short term memory, long term memory, depression, activity level, social interaction, and cognitive ability are improved”. Moreover, the “phosphorylation of Tau, memory or brain atrophy” value in assay [6] is “suppression in phosphorylation of Tau and improvement in memory or brain atrophy are observed”. The “gene expression levels versus untreated cells” value in assay [7] is listed as “change in gene expression similar to Example 2”.
